This is an account of results in ChEMBL document CHEMBL2074465, “Nonsteroidal anti-inflammatory drugs efficiently reduce the transport and cytotoxicity of adefovir mediated by the human renal organic anion transporter 1” (J Pharmacol Exp Ther, 2000).

Structures are written as SMILES.

This data set has as its target T1, Solute carrier family 22 member 6 (Homo sapiens, UniProt Q4U2R8).
T1 sequence (Q4U2R8 whole entry): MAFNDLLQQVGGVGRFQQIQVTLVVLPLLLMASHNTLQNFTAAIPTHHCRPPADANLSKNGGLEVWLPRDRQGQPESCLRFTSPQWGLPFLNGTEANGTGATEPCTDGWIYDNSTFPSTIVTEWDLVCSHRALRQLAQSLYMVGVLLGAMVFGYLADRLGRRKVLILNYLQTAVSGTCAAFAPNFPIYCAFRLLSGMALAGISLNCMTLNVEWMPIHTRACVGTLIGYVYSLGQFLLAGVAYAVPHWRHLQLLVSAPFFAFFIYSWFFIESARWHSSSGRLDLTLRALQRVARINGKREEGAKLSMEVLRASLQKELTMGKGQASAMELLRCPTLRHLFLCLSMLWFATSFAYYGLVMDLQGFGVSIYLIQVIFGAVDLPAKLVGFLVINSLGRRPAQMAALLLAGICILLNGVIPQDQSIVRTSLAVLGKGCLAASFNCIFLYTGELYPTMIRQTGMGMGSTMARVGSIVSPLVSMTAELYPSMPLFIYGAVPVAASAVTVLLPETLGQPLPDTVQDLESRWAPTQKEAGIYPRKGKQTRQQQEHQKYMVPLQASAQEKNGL
Nature of the data set: TP_TRANSPORTER: uptake in OAT1-expressing CHO cells. It counts as functional, cell-based. The conditions noted are these: hamster.

As to `CC(C(=O)O)c1cccc(C(=O)c2ccccc2)c1` (stereo unspecified) [KETOPROFEN], the Activity result is “is not a substrate [-]”.
